Where two headings read alike, the source gives them in different places.
Tests used:
[1] = test system: lab-adapted and clinical HIV-1 isolates; assay: Infection assays in primary T CD4+ lymphocytes; assay type: cell-based; conditions: Human immunodeficiency virus 1, Lymphocyte
[2] = test system: HIV-1 strains resistant to INSTIs, NRTIs, NNRTIs or PIs; assay type: cell-based
Description: To this end, we used both recombinant viruses constructed by introducing described drug resistance mutations into NL4-3 HIV-1 clone as well as drug-resistant clinical HIV-1 isolates.
(§1) MT4 cells growing exponentially at the density of 10^6/mL were infected with HIV-1 strain NL4-3 at a multiplicity of infection (MOI) of 0.001 for 2 h in the presence of different concentrations of compounds, and the CellTiter-Glo luminescent reagent (Promega) was used to quantify cell viability as described previously ([12]).

[3] = test system: NL4-3 HIV-1 strain; assay: Multiple-round infection assay in MT4 cells, NL4-3; assay type: cell-based; conditions: MT4 cells
[4] = test system: recombinant NL4-3 viruses with polymorphisms at IN positions 124 and 125; assay: Multiple-round infection of MT4 cells with recombinant NL4-3 viruses polymorphic at IN positions 124 and 125; assay type: cell-based, HIV-1
Source text: Located on the HIV-1 IN CCD dimerization interface, the principal INLAI binding pocket overlaps with a hot spot of amino acid sequence polymorphism involving IN residues 124 and 125 ([16]). To test if the new INLAIs maintained antiviral activity against major polymorphisms, we introduced all major combinations of residues found in circulating HIV-1 strains at positions 124 and 125 into NL4-3 HIV-1 molecular clone. In total, we evaluated 15 such combinations that collectively covered 98% of all HIV-1 clade polymorphisms involving these positions ([48]). To gauge effects on the antiviral activity, we calculated the EC50 fold change (FC) relative to wild type NL4-3 HIV-1 strain that features Thr124 and Thr125 (TT; specific polymorphisms are referred to by a single letter amino acid code).
as §1

[5] = test system: HXB2 HIV-1 strain; assay: Multiple-round infection assay in MT4 cells, HXB2; assay type: cell-based; conditions: Human immunodeficiency virus 1, HXB2; multiple-round infection, MT4 cells; mean ± SD, n > 5; read-out: EC50 HXB2
Description: Antiretroviral activity of BDM-2 and its analogs was first evaluated in lymphoblastoid cell line MT4 and in primary human T lymphocytes using NL4-3 and HXB2 laboratory HIV-1 isolates.
as §1

[6] = test system: primary HIV-1 isolates with polymorphisms at IN positions 124 and 125; assay: Multiple-round infection of MT4 cells with primary HIV-1 isolates polymorphic at IN positions 124 and 125; assay type: cell-based; conditions: primary isolate
Description: Next, we evaluated the potency of the BDM-2 series of INLAIs against several primary HIV-1 isolates with polymorphisms at IN positions 124 and 125.
as §1

[7] = test system: VSV-G-pseudotyped NL4-3Δenv-luc; assay: microbe, parasite or virus in culture; assay type: cell-based, HIV-1
[8] = Cytotoxicity assay in MT4 cells; assay type: cell-based; conditions: human, MT4 cells (proliferating human T-cell line), CellTiter-Glo
Source text: Growth inhibition was monitored in a proliferating human T-cell line (MT4) with different concentrations of compounds, using the CellTiter-Glo luminescent reagent (Promega), as previously described ([12]).

[9] = INSTI-resistant, NL4-3 background
[10] = INSTI-resistant, primary patient-derived strain

C[C@@H]1CCO[C@H]2Cn3cc(C(=O)NCc4ccc(F)cc4F)c(=O)c(O)c3C(=O)N12 [DTG, dolutegravir, reference compound]
EC50 ([1]; read-out: EC50 33913N (B)): 0.35 ± 0.42 nM | EC50 ([1]; read-out: EC50 HXB2 (B)): 0.17 ± 0.01 nM | EC50 ([1]; read-out: EC50 KER2008 (A)): 0.4 ± 0.21 nM | EC50 ([1]; read-out: EC50 NL4-3 (B)): 0.53 ± 0.16 nM | EC50 ([1]; read-out: EC50 NP1525 (CRF01_AE)): 0.21 ± 0.09 nM | EC50 ([1]; read-out: EC50 NP1538 (B)): 0.29 ± 0.13 nM | Fold change in EC50 relative to NL4-3, G140S [2, 9]: 0.6 | Fold change in EC50 relative to NL4-3, G140S/Q148H [2, 9]: 2 | Fold change in EC50 relative to NL4-3, N155H [2, 9]: 0.3 | Fold change in EC50 relative to NL4-3, Q148H [2, 9]: 0.3 | Fold change in EC50 relative to NL4-3, Y143R [2, 9]: 0.4 | Fold change in EC50 relative to NL4-3, E92Q/N155H (pat.) [2, 10]: 1 | Fold change in EC50 relative to NL4-3, G140S/Q148H (pat.) [2, 10]: 3 | Fold change in EC50 relative to NL4-3, T97A/N155H (pat.) [2, 10]: 3 | Fold change in EC50 relative to NL4-3, NLAY351717 ([2]; NRTI-resistant clone): 0.4 | Fold change in EC50 relative to NL4-3, NLAY351753 ([2]; NRTI/NNRTI-resistant clone): 1 | Fold change in EC50 relative to NL4-3, K103N/Y181C ([2]; NRTI/NNRTIs group, NL4-3 background): 0.3 | Fold change in EC50 relative to NL4-3, ARP-4595 ([2]; PI-resistant virus): 1 | Fold change in EC50 relative to NL4-3, ARP-4596 ([2]; PI-resistant virus): 0.5 | Fold change in EC50 relative to NL4-3, ARP-11801 ([2]; PI-resistant virus): 1 | Fold change in EC50 relative to NL4-3, ARP-11803 ([2]; PI-resistant virus): 1 | Fold change in EC50 relative to NL4-3, ARP-11807 ([2]; PI-resistant virus): 2 | Fold change in EC50 relative to NL4-3, ARP-11808 ([2]; PI-resistant virus): 1 | EC90 ([3]; Human immunodeficiency virus 1, NL43, multiple-round infection, from dose response curves, read-out: EC90 NL4-3): 6.3 ± 4.4 nM | EC50 ([3]; Human immunodeficiency virus 1, NL43, multiple-round infection, mean ± SD, n > 5, read-out: EC50 NL4-3): 2.7 ± 1.3 nM | Selectivity index CC50/EC50 NL4-3 [3]: 18,888 | Fold change in EC50 relative to parental NL4-3, AA ([4]; recombinant NL4-3, IN 124/125 AA): 1 | Fold change in EC50 relative to parental NL4-3, AM ([4]; recombinant NL4-3, IN 124/125 AM): 2 | Fold change in EC50 relative to parental NL4-3, AT ([4]; recombinant NL4-3, IN 124/125 AT): 1 | Fold change in EC50 relative to parental NL4-3, AV ([4]; recombinant NL4-3, IN 124/125 AV): 2 | Fold change in EC50 relative to parental NL4-3, GA ([4]; recombinant NL4-3, IN 124/125 GA): 2 | Fold change in EC50 relative to parental NL4-3, GT ([4]; recombinant NL4-3, IN 124/125 GT): 2 | Fold change in EC50 relative to parental NL4-3, NA ([4]; recombinant NL4-3, IN 124/125 NA): 1 | Fold change in EC50 relative to parental NL4-3, NT ([4]; recombinant NL4-3, IN 124/125 NT): 1 | Fold change in EC50 relative to parental NL4-3, NV ([4]; recombinant NL4-3, IN 124/125 NV): 2 | Fold change in EC50 relative to parental NL4-3, SA ([4]; recombinant NL4-3, IN 124/125 SA): 1 | Fold change in EC50 relative to parental NL4-3, ST ([4]; recombinant NL4-3, IN 124/125 ST): 2 | Fold change in EC50 relative to parental NL4-3, TA ([4]; recombinant NL4-3, IN 124/125 TA): 1 | Fold change in EC50 relative to parental NL4-3, TM ([4]; recombinant NL4-3, IN 124/125 TM): 2 | Fold change in EC50 relative to parental NL4-3, TV ([4]; recombinant NL4-3, IN 124/125 TV): 2 | EC50 [5]: 1.9 ± 1 nM | Fold change in EC50 relative to parental NL4-3, CAM2BBY (CRF02) ([6]; IN 124/125 AA): 1 | Fold change in EC50 relative to parental NL4-3, E0836M4 (D) ([6]; IN 124/125 AA): 2 | Fold change in EC50 relative to parental NL4-3, KER2008 (A) ([6]; IN 124/125 AA): 1 | Fold change in EC50 relative to parental NL4-3, NP1525 (CRF01) ([6]; IN 124/125 AA): 2 | Fold change in EC50 relative to parental NL4-3, NP1695 (CRF02) ([6]; IN 124/125 AA): 2 | Fold change in EC50 relative to parental NL4-3, TZA125 (C) ([6]; IN 124/125 AA): 2 | Fold change in EC50 relative to parental NL4-3, KSM4030 (A) ([6]; IN 124/125 GA): 2 | Fold change in EC50 relative to parental NL4-3, vGA (C) ([6]; IN 124/125 GA): 2 | Fold change in EC50 relative to parental NL4-3, 99ET14 (C) ([6]; IN 124/125 NA): 2 | Fold change in EC50 relative to parental NL4-3, NP1538 (B) ([6]; IN 124/125 NA): 1 | Fold change in EC50 relative to parental NL4-3, vNA_1 (B) ([6]; IN 124/125 NA): 2 | Fold change in EC50 relative to parental NL4-3, vNA_2 (CRF02) ([6]; IN 124/125 NA): 2 | Fold change in EC50 relative to parental NL4-3, vNV (B) ([6]; IN 124/125 NV): 1 | Fold change in EC50 relative to parental NL4-3, vSA_1 (B) ([6]; IN 124/125 SA): 1 | Fold change in EC50 relative to parental NL4-3, vSA_2 (CRF02) ([6]; IN 124/125 SA): 2 | Fold change in EC50 relative to parental NL4-3, vTA_1 (B) ([6]; IN 124/125 TA): 1 | Fold change in EC50 relative to parental NL4-3, vTA_2 (CRF02) ([6]; IN 124/125 TA): 1 | EC50 ratio (single/multiple-round infection) [7]: 0.16 | EC50 ([7]; Human immunodeficiency virus 1, NL43, MT4, read-out: EC50 in single-round infection): 0.44 ± 0.13 nM | CC50 [8]: 51000 ± 28000 nM

Source: publication PMC10353390, “Biological and Structural Analyses of New Potent Allosteric Inhibitors of HIV-1 Integrase” (Antimicrobial Agents and Chemotherapy, 2023)
